Reference: article PMC7473865, “Repertoire-scale determination of class II MHC peptide binding via yeast display improves antigen prediction” (Nature Communications, 2020)
Like-named read-outs stand apart in the source and are kept apart here. Ends that are not written are not given here.

Columns and labels:
Assay type in all cases: binding
[1] = molecular target: T1, recombinant HLA-DR402 (HLA-DRA1*01:01, HLA-DRB1*04:02) (Homo sapiens, UniProt P01903+P01911, A100E/A169T/F76Y/K127E/L162R/M171V/N62H/P40V/Q125Y/Q99D/R42H/S133A/S149N/S66Y/V209L/W38E); assay: biochemical
T1 construct: poly-histidine (C); made in house; host or cells: High Five (Hi5) insect cells, baculovirus (pAcGP67a)

[2] = molecular target: yeast-displayed HLA-DR401 (Homo sapiens, UniProt P01903+P01911, A100K/A169T/D72E/F76Y/I96L/K127E/L162R/M171V/M61L/P40V/Q125Y/R42H/S133A/S149N/S66Y/V115G/V157M/V209L/W38E); assay: Yeast-display randomized peptide library selection and deep sequencing, HLA-DR401; parameters: key: 1=binder; 0=non-binder
[3] = molecular target: T2, recombinant HLA-DR401 (HLA-DRA1*01:01, HLA-DRB1*04:01) (Homo sapiens, UniProt P01903+P01911, A100K/A169T/F76Y/I96L/K127E/L162R/M171V/N62H/P40V/Q125Y/R42H/S133A/S149N/S66Y/V115G/V209L/W38E); assay: biochemical
T2 construct: poly-histidine (C); made in house; host or cells: High Five (Hi5) insect cells, baculovirus (pAcGP67a)

[4] = HLA-DR402, estimated from two-point fluorescence polarization competition, Fig5F, read-out: Estimated IC50
[5] = SuppFig8C, yeast-display library peptides
[6] = SuppFig6C, fluorescence polarization competition, HLA-DR401, read-out: Measured IC50
[7] = estimated from two-point fluorescence polarization competition assay binding plots, HLA-DR401, N = 3 technical replicates per condition, read-out: IC50 (estimated)
[8] = fluorescence polarization peptide competition, HLA-DR401, sheet Fig7, read-out: Measured IC50

CC[C@H](C)[C@H](NC(=O)[C@@H]1CCCN1C(=O)[C@H](Cc1ccc(O)cc1)NC(=O)[C@H](CCCCN)NC(=O)[C@H](CCSC)NC(=O)[C@H](C)NC(=O)[C@H](CCSC)NC(=O)[C@H](CCSC)NC(=O)[C@H](Cc1c[nH]c2ccccc12)NC(=O)[C@H](CCCCN)NC(=O)[C@H](CCSC)NC(=O)[C@H](CCCNC(=N)N)NC(=O)[C@H](CC(C)C)NC(=O)[C@H](C)NC(=O)[C@@H]1CCCN1)C(=O)O
IC50 [1, 4]: 1310 nM

CC[C@H](C)[C@H](NC(=O)[C@H](CCC(=O)O)NC(=O)[C@@H](N)[C@@H](C)O)C(=O)N[C@H](C(=O)N[C@@H](CCCNC(=N)N)C(=O)N[C@@H](CCSC)C(=O)N[C@@H](CCSC)C(=O)N[C@@H](CCC(=O)O)C(=O)N[C@@H](CO)C(=O)N[C@@H](C)C(=O)N[C@@H](CCCNC(=N)N)C(=O)N1CCC[C@H]1C(=O)N[C@@H](CCC(=O)O)C(=O)N[C@@H](CC(=O)O)C(=O)N[C@H](C(=O)O)C(C)C)[C@@H](C)CC
IC50 [1, 4]: 83.1 nM

CC[C@H](C)[C@H](NC(=O)[C@H](C)NC(=O)[C@@H](NC(=O)[C@H](C)NC(=O)[C@H](CCCNC(=N)N)NC(=O)[C@H](CCCNC(=N)N)NC(=O)CNC(=O)[C@@H](NC(=O)[C@H](CCSC)NC(=O)[C@@H](NC(=O)[C@H](Cc1ccccc1)NC(=O)[C@H](CCC(=O)O)NC(=O)[C@H](CCC(=O)O)NC(=O)[C@@H](N)Cc1ccc(O)cc1)[C@@H](C)O)C(C)C)[C@@H](C)O)C(=O)N[C@@H](CC(C)C)C(=O)O
IC50 [1, 4]: 4570 nM

CC[C@H](C)[C@H](NC(=O)CNC(=O)[C@H](CCCNC(=N)N)NC(=O)[C@H](CCCCN)NC(=O)[C@@H](NC(=O)[C@H](CCSC)NC(=O)[C@H](CCCNC(=N)N)NC(=O)[C@@H](NC(=O)[C@H](CC(C)C)NC(=O)[C@H](CCC(=O)O)NC(=O)[C@H](CCSC)NC(=O)[C@@H](NC(=O)[C@H](CCSC)NC(=O)[C@@H](N)[C@@H](C)O)C(C)C)C(C)C)[C@@H](C)CC)C(=O)N[C@@H](CC(N)=O)C(=O)O [TMVMELVRMIKRGIN]
IC50 [1, 4]: 870 nM

AAACRKRTWLGWEEG
IC50 [1, 4]: < 10 nM | IC50 ([1]; read-out: IC50): < 10 nM

AAADARCSNRSDLMGGSGGG
label (1=binder, 0=non-binder) ([2]; Fig6B data set): 0 | label (1=binder, 0=non-binder) [2, 5]: 0

AAAKYRLHVKSGWSGGSGGG
label (1=binder, 0=non-binder) ([2]; Fig6B data set): 0

AAALSTSWLFCSRCGGSGGG
label (1=binder, 0=non-binder) ([2]; Fig6B data set): 0 | label (1=binder, 0=non-binder) [2, 5]: 0

AAAMQRRNPALLLFGGSGGG
label (1=binder, 0=non-binder) ([2]; Fig6B data set): 0 | label (1=binder, 0=non-binder) [2, 5]: 0

AAANRRPSLLGWEEG
IC50 [1, 4]: < 10 nM | IC50 ([1]; read-out: IC50): < 10 nM

AAANWSSSPDMPLVGGSGGG
label (1=binder, 0=non-binder) ([2]; Fig6B data set): 0 | label (1=binder, 0=non-binder) [2, 5]: 0

AAARGALTTQLLAIGGSGGG
label (1=binder, 0=non-binder) [2, 5]: 0

AACRKHGSSIGWEEG
IC50 [1]: 132 nM

AAEFRNEDGPLGEPG
IC50 [3, 6]: 79.9 nM

AAEHVWPSLVGWEEG
IC50 [1]: 25.6 nM

AAERKMSVLSAWEEG
IC50 [3]: 817 nM

AAFFGWEWGPDGEPG
IC50 ([3]; read-out: Measured IC50): 5670 nM

AAFLGEWSLLSWEEG
IC50 [3, 7]: < 10 nM

AAGFKGEQGPKGEPG
IC50 ([3]; read-out: Measured IC50): 2910 nM

AAGFKGEQGPKGGPG
IC50 ([3]; read-out: Measured IC50): 12100 nM

AAGFKGEQGPKGYPG
IC50 [3, 6]: 115 nM

AAGFPGEQGPKGEPG
IC50 [3, 8]: > 50000 nM | IC50 ([3]; read-out: Measured IC50): > 50000 nM

AAGRSHRTHEGWEEG
IC50 [1]: 10 nM

AAGVIDPTMLGWEEG
IC50 [3]: 29.3 nM

AALDAHRDHMAWEEG
IC50 [1, 4]: < 10 nM | IC50 ([1]; read-out: IC50): < 10 nM

AALGLDLRAYVWEEG
IC50 [3, 7]: 7000 nM

AALTGKLGHRGWEEG
IC50 [1, 4]: < 10 nM | IC50 ([1]; read-out: IC50): < 10 nM

AALWRHPGHVGWEEG
IC50 [1]: 74.9 nM

AAPRRHANHLGWEEG
IC50 [1]: 130 nM

AAQVDWPTLPMWEEG
IC50 [1]: 63.6 nM

AARYATSKSKGWEEG
IC50 [3, 7]: 9520 nM

AASFLSDSVMGWEEG
IC50 [3, 7]: < 10 nM

AATERRPTLMAWEEG
IC50 [1, 4]: < 10 nM | IC50 ([1]; read-out: IC50): < 10 nM

AAVADDFSCRGWEEG
IC50 [3]: 47 nM

AAVNDQLTVNSWEEG
IC50 [3, 7]: 4500 nM

AAVREKCDHVGWEEG
IC50 [1]: 75.5 nM

AAVSDRLPLRGWEEG
IC50 [1, 4]: < 10 nM | IC50 ([1]; read-out: IC50): < 10 nM

AAVTEEKSHLGWEEG
IC50 [1]: 58.3 nM

AAVTERPINLGWEEG
IC50 [1]: 51.3 nM

AAVTNWGCEVGWEEG
IC50 [1]: 136 nM

AAWDPDKTVYGWEEG
IC50 [3]: 43.9 nM

AAWDPERTCRAWEEG
IC50 [3]: 31.8 nM

AAWERENDMLGWEEG
IC50 [3]: 15.2 nM

AAWESSTDLVGWEEG
IC50 [3]: 11.9 nM

AAWHGEGSQIGWEEG
IC50 [3]: 17.5 nM

AAWHNDPACKGWEEG
IC50 [3]: 40.7 nM

AAWVPCGDMVSWEEG
IC50 [3]: 26.5 nM

AAWVRVVPMRAWEEG
IC50 [3, 7]: < 10 nM

AAWVVEHSEVGWEEG
IC50 [3]: 19.4 nM

AAYSVEPCYRMWEEG
IC50 [3, 7]: 37 nM

AGEYRNDPNNLAYNG
IC50 [3]: 26.5 nM

AGGFKGEQGPKGYNG
IC50 [3, 6]: 134 nM

AIGFKGEQGPKGGVG
IC50 ([3]; read-out: Measured IC50): 23300 nM

AQKIVEWDSRKSKYG
IC50 [1]: 62 nM

ASDSSYRNECPMAEKEDTQM
IC50 [3, 8]: 47.4 nM

ASKIAFKIVSQEPAG
IC50 [1]: 27.8 nM

ASKMRMATPLLMQAG
IC50 [1, 4]: < 10 nM | IC50 [3]: 5170 nM

ESSISDKNYWKTVSNAFSVI
IC50 [3, 8]: 24.7 nM

EVKYCTFSKDRSKPIPGMTL
IC50 [3, 8]: > 50000 nM | IC50 ([3]; read-out: Measured IC50): > 50000 nM

FVGNIAEDLCLDITKLSARG
IC50 [3, 8]: 86 nM

LGFVFTLTVPSERGL
IC50 [1, 4]: 409 nM

LLPVKQSVVPLAKGTLITHC
IC50 [3, 8]: 307 nM

MKRRPVWTDINPKAVTNDEL
IC50 [3, 8]: 21 nM

NRMVLASTTAKAMEQ
IC50 [1, 4]: < 10 nM | IC50 ([1]; read-out: IC50): < 10 nM

PIPVIFHRIATELRKTNDIN
IC50 [3, 8]: 698 nM

PIPVIFHRIATELSKTNDIN
IC50 [3, 8]: 42.1 nM

RKDLIVMLMDTDVNKQDKQK
IC50 [3, 8]: 3170 nM

VSSFQDILLRMSKMQ
IC50 ([3]; HLA-DR401, fluorescence polarization competition, Fig3B, read-out: Measured IC50): > 50000 nM | IC50 ([3]; read-out: Measured IC50): > 50000 nM

VYGWATLVSERSKNGMQRIL
IC50 [3, 8]: 245 nM

VYGWATLVSERSNNGMQRIL
IC50 [3, 8]: 94 nM

WRAPSYILSPELTQRLFSAA
IC50 [3, 8]: 248 nM

YSIEVLLVLDDSVVRFHGKE
IC50 [3, 8]: > 50000 nM | IC50 ([3]; read-out: Measured IC50): > 50000 nM

YVGDMLAWLHQSTASEKEHL
IC50 [3, 8]: 406 nM

YWKQWLSLRNPILVF
IC50 ([3]; fluorescence polarization competition, […], competitor 20 µM to 1.28 nM in five-fold dilutions, n = 3 replicates, read-out: Measured IC50): 2510 nM
